# Laboratory results: the supplement of paper PMC10307832
# What was measured:
# Experiment in all cases: relative viability (nuclei count vs DMSO), 5 days (fraction); higher = more cells survive
# QS11 + Trametinib = compound: C1CC2=C(C1)C=C(C=C2)OC3=NC(=C4C(=N3)N(C=N4)CC5=CC=C(C=C5)C6=CC=CC=C6)N[C@@H](CC7=CC=CC=C7)CO [QS11] + CC(=O)Nc1cccc(-n2c(=O)n(C3CC3)c(=O)c3c(Nc4ccc(I)cc4F)n(C)c(=O)c(C)c32)c1 [Trametinib] (partner 0.02 µM)
# How it was run: (§1)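 Lung cancer cell lines were pin-tool dosed in 1536-well plates on the day after seeding, with either a lone drug or a fixed anchor-drug dose plus five library-drug doses (not always all listed) in √10 steps. Nuclei were counted on 4× images after 5 days. Relative viability is the ratio of treated-well to vehicle-well nuclei counts, with each value a median of duplicate plates.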
# AZ628 + Trametinib = compound: CC1=C(C=C(C=C1)NC(=O)C2=CC(=CC=C2)C(C)(C)C#N)NC3=CC4=C(C=C3)N=CN(C4=O)C [AZ628] + CC(=O)Nc1cccc(-n2c(=O)n(C3CC3)c(=O)c3c(Nc4ccc(I)cc4F)n(C)c(=O)c(C)c32)c1 [Trametinib] (partner 0.02 µM)
# How it was run: as §1
# Darinaparsin + Olaparib = compound: C[As](C)SC[C@H](NC(=O)CC[C@H](N)C(=O)O)C(=O)NCC(=O)O [Darinaparsin] + O=C(c1cc(Cc2n[nH]c(=O)c3ccccc23)ccc1F)N1CCN(C(=O)C2CC2)CC1 [Olaparib] (partner 8 µM)
# How it was run: as §1
# Darinaparsin + AZD7762 = compound: C[As](C)SC[C@H](NC(=O)CC[C@H](N)C(=O)O)C(=O)NCC(=O)O [Darinaparsin] + NC(=O)Nc1cc(-c2cccc(F)c2)sc1C(=O)N[C@H]1CCCNC1 [AZD7762] (partner 0.2 µM)
# How it was run: as §1
Cell Line,relative viability (QS11 + Trametinib; first compound 0.08 µM),relative viability (QS11 + Trametinib; first compound 0.253 µM),relative viability (QS11 + Trametinib; first compound 0.8 µM),relative viability (QS11 + Trametinib; first compound 2.53 µM),relative viability (QS11 + Trametinib; first compound 8 µM),relative viability (AZ628 + Trametinib; first compound 0.08 µM),relative viability (AZ628 + Trametinib; first compound 0.253 µM),relative viability (AZ628 + Trametinib; first compound 0.8 µM),relative viability (AZ628 + Trametinib; first compound 2.53 µM),relative viability (AZ628 + Trametinib; first compound 8 µM),relative viability (Darinaparsin + Olaparib; first compound 0.08 µM),relative viability (Darinaparsin + Olaparib; first compound 0.8 µM),relative viability (Darinaparsin + Olaparib; first compound 2.53 µM),relative viability (Darinaparsin + Olaparib; first compound 8 µM),relative viability (Darinaparsin + AZD7762; first compound 0.08 µM),relative viability (Darinaparsin + AZD7762; first compound 0.8 µM),relative viability (Darinaparsin + AZD7762; first compound 2.53 µM),relative viability (Darinaparsin + AZD7762; first compound 8 µM)
NCI-H2228,0.483,0.392,0.507,0.788,0.547,0.34,0.316,0.263,0.129,0.12,0.746,0.74,0.693,0.944,–,–,–,–
NCI-H441,0.59,0.424,0.545,0.56,0.486,0.405,0.306,0.386,0.283,0.437,0.647,0.538,0.734,0.502,1.2,1.08,0.815,1.13
NCI-H460,0.13,0.158,0.131,0.0849,0.0752,0.161,0.0829,0.0419,0.0397,0.0115,0.614,0.413,0.435,0.324,0.806,0.675,0.534,0.585
LU99A,0.532,0.626,0.517,0.5,0.533,0.296,0.277,0.245,0.244,0.288,0.275,0.252,0.125,0.246,0.455,0.273,0.328,0.383
NCI-H358,0.117,0.136,0.167,0.153,0.157,0.113,0.112,0.104,0.102,0.134,0.701,0.61,0.585,0.569,0.478,0.581,0.591,0.522
IA-LM,–,–,–,–,–,–,–,–,–,–,0.93,0.936,0.982,0.884,–,–,–,–
UMC-11,0.603,0.548,0.618,0.775,0.898,0.713,0.764,0.734,0.691,0.693,0.494,0.347,0.536,0.346,–,–,–,–
LXF-289,0.671,0.711,0.583,0.621,0.629,0.603,0.477,0.472,0.525,0.38,1.46,1.09,0.841,1.03,1.15,1.19,0.931,1.14
NCI-H647,0.472,0.428,0.411,0.575,0.544,0.277,0.233,0.22,0.22,0.22,0.681,0.601,0.382,0.604,0.81,0.572,0.375,0.534
NCI-H1651,0.855,0.887,0.761,0.856,0.922,0.848,0.83,0.858,0.826,0.77,0.192,0.18,0.18,0.159,0.507,0.43,0.361,0.553
